Our source for the EC50 values is patent publication US8993604B2, “Treatment and prevention of dengue virus infections” (Siga Technologies, Inc., priority 2009, dated 2015).

Structures are written as SMILES. pEC50: −log10 of the molar value. Bounds are passed on as bounds.

The test system of the experiment is Dengue-2 (Strain New Guinea C). The experiment in a line: Viral yield assay in Vero cells. Conditions: Dengue virus; Vero cells, MOI 0.1, harvested 48 hours post infection; read-out: Activity (anti-dengue 2 viral activity, EC50 class). Type of experiment: cell-based. On the procedure: Compounds that were active in the primary screen were tested for activity in viral yield assays. […] Vero cells in 12-well plates were infected with dengue-2 virus at a multiplicity of infection (MOI) of 0.1, treated with compound (or DMSO as a control), incubated at 37° C., harvested 48 hours post infection and titered on Vero cells as described above. The EC50 was calculated through ExcelFit. Activities against other serotypes of dengue virus were determined in a similar way.
For `O=C(Nc1cc(-c2nc3ccccc3s2)ccc1Cl)c1ccccc1[N+](=O)[O-]` [Compound 67, N-(5-Benzothiazol-2-yl-2-chloro-phenyl)-2-nitro-benzamide], the pEC50 is under 4.60. Take `Cc1ccc(-c2nc3ccccc3s2)cc1NC(=O)c1ccccc1[N+](=O)O` [Compound 68, N-(5-Benzothiazol-2-yl-2-methyl-phenyl)-2-nitro-benzamide]: the pEC50 was under 4.60. The figure for `COc1cc(C(=O)Nc2cccc(-c3nc4ccccc4s3)c2C)cc(OC)c1OC` [Compound 69, N-(3-Benzothiazol-2-yl-2-methyl-phenyl)-3,4,5-trimethoxy-benzamide] is under 4.60; for `COc1cc(C(=O)Nc2cc(-c3nc4ccccc4s3)ccc2Cl)cc(OC)c1OC` [Compound 70, N-(5-Benzothiazol-2-yl-2-chloro-phenyl)-3,4,5-trimethoxy-benzamide] it is under 4.60. `Cc1ccccc1C(=O)Nc1cc(-c2nc3ccccc3s2)ccc1Cl` [Compound 71, N-(5-Benzothiazol-2-yl-2-chloro-phenyl)-2-methyl-benzamide]: the pEC50 was under 4.60.

On to `O=C(Nc1ccc(O)c(-c2nc3ccccc3s2)c1)c1ccc2c(c1)OCCO2` [Compound 72, 2,3-Dihydro-benzo[1,4]dioxine-6-carboxylic acid (3-benzothiazol-2-yl-4-hydroxy-phenyl)-amide], for which the pEC50 was under 4.60. As for `Cc1c(NC(=O)c2ccc([N+](=O)[O-])cc2Cl)cccc1-c1nc2ccccc2s1` [Compound 73, N-(3-Benzothiazol-2-yl-2-methyl-phenyl)-2-chloro-4-nitro-benzamide], the figure is under 4.60; as for `CCCOc1cccc(C(=O)Nc2cc(-c3nc4ccccc4s3)ccc2C)c1` [Compound 74, N-(5-Benzothiazol-2-yl-2-methyl-phenyl)-3-propoxy-benzamide], under 4.60; as for `Cc1ccc(-c2nc3ccccc3s2)cc1NC(=O)c1ccc2c(c1)OCCO2` [Compound 75, 2,3-Dihydro-benzo[1,4]dioxine-6-carboxylic acid (5-benzothiazol-2-yl-2-methyl-phenyl)-amide], under 4.60. The figure for `O=C(Nc1ccc(-c2nc3ccccc3s2)cc1)c1cccc(F)c1` [Compound 76, N-(4-Benzothiazol-2-yl-phenyl)-3-fluoro-benzamide] is under 4.60; for `COc1c(Cl)cc(C(=O)Nc2cc(-c3nc4ccccc4s3)ccc2Cl)cc1Cl` [Compound 77, N-(5-Benzothiazol-2-yl-2-chloro-phenyl)-3,5-dichloro-4-methoxy-benzamide] it is under 4.60. Take `Cc1c(C(=O)Nc2ccc(-c3nc4ccccc4s3)c(O)c2)cccc1[N+](=O)[O-]` [Compound 78, N-(4-Benzothiazol-2-yl-3-hydroxy-phenyl)-2-methyl-3-nitro-benzamide]: the pEC50 was under 4.60. As for `O=C(Nc1ccc(-c2nc3ccccc3s2)cc1)c1c(F)cccc1F` [Compound 79, N-(4-Benzothiazol-2-yl-phenyl)-2,6-difluoro-benzamide], the figure is under 4.60.

For `CC(=O)Nc1ccc(C(=O)Nc2ccc(-c3nc4ccc(C)cc4s3)cc2)cc1` [Compound 80, 4-Acetylamino-N-[4-(6-methyl-benzothiazol-2-yl)-phenyl]-benzamide], the pEC50 was under 4.60. With `COC(=O)c1cc(C(=O)Nc2ccc(-c3nc4ccc(C)cc4s3)cc2)cc([N+](=O)O)c1` [Compound 81, N-[4-(6-Methyl-benzothiazol-2-yl)-phenyl]-5-nitro-isophthalamic acid methyl ester], the pEC50 is under 4.60. For the compound `N#Cc1ccc(C(=O)Nc2ccc(Cl)c(-c3nc4ccccc4s3)c2)c(F)c1` [Compound 82, N-(3-Benzothiazol-2-yl-4-chloro-phenyl)-4-cyano-2-fluoro-benzamide], the negative-log EC50 (pEC50) was under 4.60. As for `O=C(Nc1cccc(-c2nc3ccccc3s2)c1)c1ccccc1I` [Compound 83, N-(3-Benzothiazol-2-yl-phenyl)-2-iodo-benzamide], the figure is under 4.60. Consider `COc1ccc(C(=O)Nc2cccc(-c3nc4ccccc4s3)c2)cc1[N+](=O)[O-]` [Compound 84, N-(3-Benzothiazol-2-yl-phenyl)-4-methoxy-3-nitro-benzamide], for which the pEC50 is under 4.60. The figure for `Cc1cc(C(=O)Nc2ccc(-c3nc4ccccc4s3)cc2)ccc1[N+](=O)[O-]` [Compound 85, N-(4-Benzothiazol-2-yl-phenyl)-3-methyl-4-nitro-benzamide] is under 4.60; for `COc1cc(OC)cc(C(=O)Nc2ccc(Cl)c(-c3nc4ccccc4s3)c2)c1` [Compound 86, N-(3-Benzothiazol-2-yl-4-chloro-phenyl)-3,5-dimethoxy-benzamide] it is under 4.60; for `Cc1ccc(C(=O)Nc2ccc(-c3nc4ccc(C)cc4s3)cc2)c(Cl)c1` [Compound 87, 2-Chloro-4-methyl-N-[4-(6-methyl-benzothiazol-2-yl)-phenyl]-benzamide] it is under 4.60. The figure for `COc1ccc(C(=O)Nc2ccc(-c3nc4ccccc4s3)cc2)cc1[N+](=O)[O-]` [Compound 88, N-(4-Benzothiazol-2-yl-phenyl)-4-methoxy-3-nitro-benzamide] is under 4.60; for `Cc1ccc(C(=O)Nc2cccc(-c3nc4ccccc4s3)c2)cc1` [Compound 89, N-(3-Benzothiazol-2-yl-phenyl)-4-methyl-benzamide] it is under 4.60. The figure for `O=C(Nc1cccc(-c2nc3ccccc3s2)c1)c1ccc(F)cc1` [Compound 90, N-(3-Benzothiazol-2-yl-phenyl)-4-fluoro-benzamide] is under 4.60; for `COc1ccc(C(=O)Nc2cccc(-c3nc4ccccc4s3)c2)cc1` [Compound 91, N-(3-Benzothiazol-2-yl-phenyl)-4-methoxy-benzamide] it is under 4.60; for `Cc1ccccc1C(=O)Nc1cccc(-c2nc3ccccc3s2)c1` [Compound 92, N-(3-Benzothiazol-2-yl-phenyl)-2-methyl-benzamide] it is under 4.60. For `O=C(Nc1ccccc1-c1nc2ccccc2s1)c1ccccc1F` [Compound 93, N-(2-Benzothiazol-2-yl-phenyl)-2-fluoro-benzamide], the pEC50 was under 4.60. `CCN(CC)S(=O)(=O)c1ccc(C(=O)Nc2ccccc2-c2nc3ccccc3s2)cc1` [Compound 94, N-(2-Benzothiazol-2-yl-phenyl)-4-diethylsulfamoyl-benzamide]: the pEC50 was under 4.60. As for `COc1cccc(OC)c1C(=O)Nc1ccc(-c2nc3ccccc3s2)cc1` [Compound 95, N-(4-Benzothiazol-2-yl-phenyl)-2,6-dimethoxy-benzamide], the figure is under 4.60; as for `O=C(Nc1cccc(-c2nc3ccccc3s2)c1)c1ccc(N2CCCC2)c([N+](=O)[O-])c1` [Compound 96, N-(3-Benzothiazol-2-yl-phenyl)-3-nitro-4-pyrrolidin-1-yl-benzamide], under 4.60; as for `O=C(Nc1ccccc1-c1nc2ccccc2s1)c1cccc(Cl)c1Cl` [Compound 97, N-(2-Benzothiazol-2-yl-phenyl)-2,3-dichloro-benzamide], under 4.60. As for `O=C(Nc1ccccc1-c1nc2ccccc2s1)c1ccc([N+](=O)[O-])cc1Cl` [Compound 98, N-(2-Benzothiazol-2-yl-phenyl)-2-chloro-4-nitro-benzamide], the figure is under 4.60; as for `Cc1ccc(C(=O)Nc2ccccc2-c2nc3ccccc3s2)cc1C` [Compound 99, N-(2-Benzothiazol-2-yl-phenyl)-3,4-dimethyl-benzamide], under 4.60; as for `COc1c(Cl)cc(Cl)cc1C(=O)Nc1ccccc1-c1nc2ccccc2s1` [Compound 100, N-(2-Benzothiazol-2-yl-phenyl)-3,5-dichloro-2-methoxy-benzamide], under 4.60.

As for `CCC(C)Oc1ccc(C(=O)Nc2ccccc2-c2nc3ccccc3s2)cc1` (centres unmarked) [Compound 101, N-(2-Benzothiazol-2-yl-phenyl)-4-sec-butoxy-benzamide], the pEC50 is under 4.60. Take `O=C(Nc1ccccc1-c1nc2ccccc2s1)c1cc(Br)ccc1Cl` [Compound 102, N-(2-Benzothiazol-2-yl-phenyl)-5-bromo-2-chloro-benzamide]: the pEC50 is under 4.60. As for `O=C(Nc1ccccc1-c1nc2ccccc2s1)c1cccc(I)c1` [Compound 103, N-(2-Benzothiazol-2-yl-phenyl)-3-iodo-benzamide], the figure is under 4.60; as for `COc1cc(OC)cc(C(=O)Nc2ccccc2-c2nc3ccccc3s2)c1` [Compound 104, N-(2-Benzothiazol-2-yl-phenyl)-3,5-dimethoxy-benzamide], under 4.60; as for `O=C(Nc1ccccc1-c1nc2ccccc2s1)c1ccc(-c2ccccc2)cc1` [Compound 105, Biphenyl-4-carboxylic acid (2-benzothiazol-2-yl-phenyl)-amide], under 4.60. The figure for `CCCCOc1cccc(C(=O)Nc2ccccc2-c2nc3ccccc3s2)c1` [Compound 106, N-(2-Benzothiazol-2-yl-phenyl)-3-butoxy-benzamide] is under 4.60. The figure for `Cc1ccc(C(=O)Nc2ccccc2-c2nc3ccccc3s2)cc1[N+](=O)[O-]` [Compound 107, N-(2-Benzothiazol-2-yl-phenyl)-4-methyl-3-nitro-benzamide] is under 4.60; for `COc1c(Cl)cc(C(=O)Nc2ccccc2-c2nc3ccccc3s2)cc1Cl` [Compound 108, N-(2-Benzothiazol-2-yl-phenyl)-3,5-dichloro-4-methoxy-benzamide] it is under 4.60; for `O=C(Nc1ccccc1-c1nc2ccccc2s1)c1cccc2c(Cl)cccc12` [Compound 109, 5-Chloro-naphthalene-1-carboxylic acid (2-benzothiazol-2-yl-phenyl)-amide] it is under 4.60. Turning to `O=C(Nc1ccccc1-c1nc2ccccc2s1)c1cccc(F)c1` [Compound 110, N-(2-Benzothiazol-2-yl-phenyl)-3-fluoro-benzamide], the pEC50 was under 4.60.

What is called pEC50 is the negative decadic logarithm of the EC50, by convention in mol/L.
